Data: patent publication US9498412B2, “Method for producing microcapsules with a sun protection effect” (Greenjoy Biotech Co., Ltd., priority 2014, dated 2016)
Read-outs that look alike come from different tables or passages of the source.

Type: in vitro ADME
Details: Landrace, pig, 3 % in mineral oil
Description: 5. In Vitro Transdermal Delivery Analysis:
(1) Preparing penetration membranes from a swine skin: An ear skin of a 6-month-old Landrace pig was prepared and cleaned with deionized water. The upper skin of the pig ear was cut by a scalpel to remove the fat layer. Then, the pig ear was cut into a plurality of penetration membranes each having an area of 1.5×1.5 cm^2 and each having a thickness of 605 μm. The penetration membranes were soaked in phosphate buffer saline (PBS), were sealed in a bag, and were frozen for future use.
(2) Before experiment, the penetration membranes were unfrozen in PBS to room temperature such that the gaps between the keratinocyte cells returned to their natural state. The penetration membranes were fixed in a Franz-type diffusion cell (see FIG. 2). The diffusion area was 0.636 cm^2. To test the skin integrity, the upper and lower sections of the diffusion cell were filled with 50% ethanol+50% PBS. After removing bubbles from the lower chamber, a sample of 0.5 g was placed into the upper, donor cell, and 50% ethanol+50% PBS was placed into the lower, receptor cell having a volume of 5.3 mL. A thermostat water tank heater was used to control the water temperature to be 35° C.±1. Stirring was carried out by using a magnet to balance the drug concentration distribution in the receptor cell.
(3) Each experiment used 5 diffusion cells to obtain the average value. 50 μL was sampled from the receptor cell and analyzed by HPLC. The same amount of a physiological solution was filled back into the receptor cell to maintain the total volume in the receptor cell.
(4) The injected volume was 50 μL. The detection wavelength was 260 nm. A mixture of 88% methanol, 11% water, and 1% acetic acid was used as the mobile phase in isocratic elution. The flow rate of the mobile phase was 1.0 mL/min. OMC of 1 ppm, 10 ppm, 50 ppm, and 100 ppm and avobenzone standard solution were used to create a calibration curve. Each concentration was detected three times to obtain the average value. Peak-ABC Chromatography Data Handling System (manufactured by Great Tide Instruments, Taiwan) was used to capture and handle the signals. A sample of 50 μL was sampled from the receptor cell and analyzed by HPLC. Peak-ABC Chromatography Data Handling System was used to analyze the concentration for calculating the lag time and the flux.
The Franz-type diffusion cell system was used to assess the penetration characteristics of carrier-entrapped filters. […] The stratum corneum is an important barrier of the skin for resisting alien objects and is also a hindrance to transdermal delivery of an active constituent. During an initial stage of passage from the donor site to the receptor site through the skin, there is a lag time for the active constituent to penetrate the membrane of the saturated skin. After that, the active constituent remains in steady-state diffusion for a period of time during which the diffusion flux is not changed.
Assume the concentrations of the active constituent at the donor site and the receptor site of the penetration membrane are respectively Cv and Cr, the mechanism of initial transdermal absorption can be explained by Fick's first law of diffusion: J=dQ/Dt=DAK(Cv−Cr)/h
wherein J is the transdermal flux, Q is the cumulative penetration amount, D is the diffusion coefficient, A is the diffusional surface area, K is the partition coefficient, and h is the diffusional pathlength.
Since Cr is very small at the initial stage of penetration, DC=(Cv−Cr) arrpoximates Cv. The transdermal flux is in proportion to the concentration difference ([…]). Thus, the slope of an optimal line in a diagram obtained from the cumulative penetration quantity Q and the penetration time t is the transdermal flux J. The lag time parameter can be obtained by linear extrapolation to the intersection on X axis. […]

SMILES	Amount in receptor site (0 h) [μg/cm^2]	Transdermal flux (%) (0 h)	lag time [h]	Amount in receptor site (0.5 h) [μg/cm^2]	Transdermal flux (%) (0.5 h)	Amount in receptor site (1 h) [μg/cm^2]	Transdermal flux (%) (1 h)	Amount in receptor site (2 h) [μg/cm^2]	Transdermal flux (%) (2 h)	Amount in receptor site (3 h) [μg/cm^2]	Transdermal flux (%) (3 h)	transdermal flux (4 h) [μg/cm^2·hr]	Amount in receptor site (6 h) [μg/cm^2]	Transdermal flux (%) (6 h)	transdermal flux (6 h) [μg/cm^2·hr]
CCCCC(CC)COC(=O)C=Cc1ccc(OC)cc1 (stereo not shown) [OMC, octyl methoxycinnamate]	0	0	0.15	0	0	31.84 ± 1.81	0.13 ± 0.01	65.15 ± 7.96	0.28 ± 0.03	121.97 ± 4.95	0.52 ± 0.02	40.069	227.55 ± 12.94	0.96 ± 0.05	
COc1ccc(C(=O)CC(=O)c2ccc(C(C)(C)C)cc2)cc1 [avobenzone]	0	0	0.23	0	0	20.12 ± 2.19	0.09 ± 0.01	48.21 ± 2.73	0.20 ± 0.01	84.85 ± 4.27	0.36 ± 0.02		161.26 ± 3.74	0.68 ± 0.02	28.237
